On the set-up of data set [1]: method as in Moore et al., 2014. The note with it: moderate renal impairment plus erythromycin vs normal renal function, rivaroxaban 10 mg alone; ref Moore et al., 2014; cited from earlier work.
Details of data set [2]: method as in Mueck et al., 2013. Particulars: healthy volunteers, ref Mueck et al., 2013, cited from earlier work.
Details of data set [3]: method as in Mueck et al., 2014. Particulars: ref Mueck et al., 2014, cited from earlier work.
The nature of data set [4]: Rivaroxaban plasma concentrations by LC-MS/MS in the patient. The data set is classed as in vivo, human. The method, then: Rivaroxaban determination was performed using a fully validated LC-MS/MS method according to guidelines of the US Food and Drug Administration and the International Conference on Harmonization. The method was accurate and precise across the dynamic range of 0.5–1000 ng/ml. The LOQ was 0.5 ng/ml. The mean precision and accuracy, calculated from the QCs, were 10.2 and 112%, respectively.
A plasma sample of 40 μl was processed by protein precipitation extraction using acetonitrile (200 μL). Separation was performed on a C18 column (50 mm × 2.1 mm ID; 2.6 μm particle size) and under gradient conditions using formic acid 10 mM in water and formic acid 10 mM in acetonitrile. Detection was by tandem-MS in positive mode using a Qtrap API 6500 from AB sciex (Ontario, Canada) using rivaroxaban-d4 as internal standard (20 ng/ml).

On the set-up of data set [5]: method as in Grillo et al., 2012. The note with it: PBPK simulation, concurrent renal impairment plus erythromycin, elderly; ref Grillo et al., 2012; cited from earlier work.
Data set [6] in a line: Case report: laboratory testing at hospital admission under rivaroxaban. Format: in vivo, human. Particulars: 3 months on rivaroxaban 20 mg q.d., normal range 140–180 g/l.
In another data set the target is T1, Factor Xa (Homo sapiens, UniProt P00742).
T1 construct: purchased Hyphen Biomed, Neuville-Sur-Oise, France
Nature of the data set: Anti-Xa activity, chromogenic assay (DiXal kit) in patient plasma. Format: in vivo. The note with it: patient on 20 mg q.d. The method, then: Anti-Xa activity was measured with a chromogenic assay using the DiXal® kit (Hyphen Biomed, Neuville-Sur-Oise, France) and a BCS XP instrument (Siemens, Marburg, Germany). This method has a limit of detection of 10 ng/ml. No information is given by the manufacturer regarding the limit of quantification (LOQ). However, previous studies have shown a LOQ of 20–30 ng/ml ([Douxfils et al., 2013]). The accuracy and precision calculated from the quality controls (QCs) were 107.0 and 8.8%, respectively, ([Asmis et al., 2012]). An excellent correlation between this method and liquid chromatography-tandem mass spectrometry (LC-MS/MS) has been shown (Spearman correlation coefficient of 0.96) ([Douxfils et al., 2013]).

Another data set concerns Mdr1a/Mdr1b/Bcrp. Details: method as in Gong et al., 2013. Particulars: 4 h after administration; ref Gong et al., 2013; cited from earlier work.
The next data set deals with P-gp. Particulars: in vitro; ref Lee et al., 2015; cited from earlier work.
On the set-up of data set [7]: method as in Lee et al., 2015. The note with it: in vivo; ref Lee et al., 2015; cited from earlier work.
The test system of data set [8] is CYP3A4/5. Particulars: in vitro; ref Lee et al., 2015; cited from earlier work.
Data set [9] concerns CYP3A4/5. The data set can be described thus: CYP3A4/5 phenotyping with midazolam as probe. Particulars: patient, 8 days after hospital admission, concomitant atorvastatin 40 mg q.d. How it is done: Midazolam was used as a probe to measure the joint activity of CYP3A4/5 as previously described ([Bosilkovska et al., 2014]). Phenotyping was performed 8 days after hospital admission with concomitant treatment of insulin, enoxaparin 60 mg b.i.d., atorvastatin 40 mg q.d.

Data set [10] concerns CYP3A4/5. The note with it: ref Bosilkovska et al., 2014, cited from earlier work.
The mark [11] stands for this setting: with ketoconazole 200 mg q.d. vs rivaroxaban alone.
Where [12] appears, read: with ketoconazole 400 mg q.d. vs rivaroxaban alone.

“Also recorded” adds a separate entry of the source. Read-outs that look alike come from different tables or passages of the source.

Data on three molecules can be found in publication PMC5165251, “Rivaroxaban-Induced Hemorrhage Associated with ABCB1 Genetic Defect” (Frontiers in Pharmacology, 2016).

What is called half-life is the time in which the quantity being followed falls by half.

T1 sequence (P00742 235-488 limits assumed): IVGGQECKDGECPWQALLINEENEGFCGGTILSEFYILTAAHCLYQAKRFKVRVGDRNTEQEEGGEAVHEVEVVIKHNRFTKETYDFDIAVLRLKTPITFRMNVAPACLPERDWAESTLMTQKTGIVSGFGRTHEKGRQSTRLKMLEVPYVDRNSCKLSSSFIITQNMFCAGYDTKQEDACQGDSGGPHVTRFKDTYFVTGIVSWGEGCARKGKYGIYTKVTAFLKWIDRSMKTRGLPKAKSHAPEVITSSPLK
T1 sequence (P00742 41-179 partner limits assumed): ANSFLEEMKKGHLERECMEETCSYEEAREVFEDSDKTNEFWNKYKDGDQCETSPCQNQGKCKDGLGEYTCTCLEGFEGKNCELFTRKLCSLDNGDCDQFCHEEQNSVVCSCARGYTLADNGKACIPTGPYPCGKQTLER

Consider `O=C(NC[C@H]1CN(c2ccc(N3CCOCC3=O)cc2)C(=O)O1)c1ccc(Cl)s1` [rivaroxaban], for which the “Increase in rivaroxaban AUC” value was “approximately 99%” in [1], 82% in data set [2] (setting [11]) and 158% in data set [2] (setting [12]). The “Increase in rivaroxaban Cmax” value is given as approximately 64% in data set [1], 53% in data set [2] (setting [11]) and 72% in data set [2] (setting [12]). Besides, the half-life is 11 to 13 h in data set [3] (old patients) and 24 to 30 h in [4] (human, plasma, oral, 20 mg q.d. Patient, homozygous ABCB1 variant carrier, moderate acute renal failure, read-out: Estimated half-life). The Oral bioavailability in [3] is 80–100%. For the same molecule, in data set [3], the “Part of the dose eliminated as unchanged drug in the urine” value was “more than one third; also recorded: About one third”. In addition, the Rivaroxaban plasma concentrations in [4] (48 h after the last rivaroxaban dose, patient on 20 mg q.d., LC-MS/MS) is 88.3 ng/mL; in data set [4] (96 h (4 days) after the last rivaroxaban dose, patient on 20 mg q.d., LC-MS/MS), 35.6 ng/mL. This molecule yielded a concentration at 48 h in data set [4] (human, plasma, oral, 20 mg q.d., 48 h after the last rivaroxaban dose, patient on 20 mg q.d., LC-MS/MS) of 88 ng/mL. Moreover, the concentration at 72 h in data set [4] (human, plasma, oral, 20 mg q.d., 72 h after the last rivaroxaban dose, patient on 20 mg q.d., LC-MS/MS) was 70.5 ng/mL. For the same molecule, in [4] (human, plasma, oral, 20 mg q.d., 96 h (4 days) after the last rivaroxaban dose, patient on 20 mg q.d., LC-MS/MS), the concentration at 96 h stood at 36 ng/mL. For the same molecule, the “Estimated half-life relative to usually reported” value in [4] (patient vs usually reported half-life) is given as 2–3 times. Besides, in data set [5], the “Increase in rivaroxaban exposure” value is listed as 2.5–3 fold. In data set [6], this molecule displayed a Hemoglobin level of 70 g/L. Besides, the Anti-Xa activity at Factor Xa (24 h after the last rivaroxaban dose) was determined as 231 ng/mL; at Factor Xa (48 h after the last rivaroxaban dose), 110 ng/mL; at Factor Xa (60 h after the last rivaroxaban dose), 81 ng/mL; at Factor Xa (72 h after the last rivaroxaban dose), 66 ng/mL; on Factor Xa (84 h after the last rivaroxaban dose) it was 66 ng/mL; on Factor Xa (96 h (4 days) after the last rivaroxaban dose), 34 ng/mL. The “Increase in plasma concentration, triple knockout vs wild type mice” value in the data set with Mdr1a/Mdr1b/Bcrp was 1.7 fold.

In the case of `CC(C)c1c(C(=O)Nc2ccccc2)c(-c2ccccc2)c(-c2ccc(F)cc2)n1CC[C@@H](O)C[C@@H](O)CC(=O)O` [atorvastatin], the “Inhibition of P-gp activity” value in the data set on P-gp is “not P-gp activity”. For the same molecule, the “Impact on nifedipine pharmacokinetics” value in [7] is “no impact”. In addition, the “Inhibition of CYP3A4/5 activity” value with CYP3A4/5 [8] is “inhibited”.

On to `Cc1ncc2n1-c1ccc(Cl)cc1C(c1ccccc1F)=NC2` [midazolam], for which the OH-midazolam/midazolam metabolic ratio with CYP3A4/5 [9] is recorded as 0.31; in the data set on CYP3A4/5 [10] (healthy volunteers in the presence of a CYP inhibitor (voriconazole)), 0.22; with CYP3A4/5 [10] (healthy volunteers without enzyme inhibitor/inducer) it was 0.50.
